According to US5219884A, “Immunosuppressant” (Taito Co., Ltd., priority 1990, dated 1993):
Like-named read-outs stand apart in the source and are kept apart here.

Columns and labels:
mouse L929 cells = assay: cytotoxicity to mouse L929 cells; type: cell-based; conditions: 550 nm
Procedure: (§1) Cytotoxicity to mouse L929 cells was assayed as follows:
(§2) L929 cells were suspended to the concentration of 1.5×10^5 cells/ml in the F12 culture medium supplemented with 10% FCS. One hundred μl of the suspension was added to each well of 96-well microculture plates, and cultured at 37° C. in an atmosphere of 5% carbon dioxide for 24 hours, to which 100 μl of the test solution was added and cultured for further 48 hours. After the culture, 100 μl of the supernatant was removed and the absorbancy at 550 nm was measured in the same way as the colormetry using MTT in Experimental Example 1. The percent suppression was calculated by the following formula used as the index of cytotoxicity. [formula]

[1] = cytotoxicity to mouse L929 cells; type: cell-based; conditions: mouse, l929 cells, read-out: Suppression
Procedure: as §1, §2

in vitro = type: cell-based, human; conditions: human, read-out: Suppression
Procedure: (§3) Cytotoxicity to human tumor cell lines was examined as follows:
(§4) Cells of human cell lines, K562, MOLT4, U937, HL60, KATOIII, KB, PC-6, PC-14 and CCRF-CEM were separately suspended to the concentration of 2×10^5 cells/ml in the RPMI1640 culture medium supplemented with 20% FCS. Fifty μl of this suspension was added to each well of 96-well microculture plates to which 50 μl of the test solution had been added. After culturing at 37° C. in an atmosphere of 5% carbon dioxide for 72 hours, the absorbancy at 550 nm was measured in the same way as the colorimetry using MTT in Experimental Example 1, and the percent suppression was calculated in the same manner as in Experimental Example 14, which was used as the index of cytotoxicity.

KB = assay: in vitro; type: cell-based, human
Procedure: as §3, §4

U937 = assay: in vitro; type: cell-based, human
Procedure: as §3, §4

PC-14 = assay: in vitro; type: cell-based, human
Procedure: as §3, §4

K562 = assay: in vitro; type: cell-based, human
Procedure: as §3, §4

HL60 = assay: in vitro; type: cell-based, human
Procedure: as §3, §4

CCRF-CEM = assay: in vitro; type: cell-based, human
Procedure: as §3, §4

[2] = test system: mouse allogenic mixed lymphocyte reaction (BALB/c responder, C57BL/6 stimulator spleen cells); assay: mouse allogenic mixed lymphocyte reaction (MLR), blastogenesis by 3H-thymidine uptake; type: cell-based
Procedure: The immunosuppressive activity of the compounds (I) and their lactones was assayed by using mouse allogenic mixed lymphocyte reaction (hereinafter sometimes abbreviated as MLR). Mouse allogenic MLR was carried out by mixed culture of the BALB/c mouse (H-2^d) spleen cells as the responder cells and the mitomycin C-treated C57BL/6 (H-2^b) spleen cells as the stimulator cells in equal amounts.
The responder cells were prepared as follows: The spleen was resected from 5- to 6-week-old male BALB/c mice, and single cell suspension of spleen cells was prepared by using the RPMI1640 culture medium (containing 60 μg/ml of kanamycin sulfate, 2 mM of L-glutamine, 10 mM of N-2-hydroxyethylpiperazine-N'-2-ethanesulfonate (HEPES) and 0.1% sodium hydrogencarbonate) to which heat-inactivated fetal calf serum (hereinaftersometimes abbreviated as FCS) had been added to 5%. After hemolytic treatment, the cell suspension was adjusted to a concentration of 10^7 cells/ml by using the RPMI1640 culture medium supplemented with 10^-4 M 2-mercaptoethanol and 20% FCS, and was used as the responder cell suspension.
The stimulator cells were prepared as follows:
The spleen was resected from 5- to 6-week-old male C57BL/6 mice, and single cell suspension of spleen cells was prepared by using the RPMI1640 culture medium. After hemolytic treatment, the cells were treated with 40 μg/ml of mitomycin C at 37° C. for 60 minutes. After washing three times, the concentration of the cell suspension was adjusted to 10^7 cells/ ml by using the RPMI1640 culture medium supplemented with 10^-4 M 2-mercaptoethanol and 20% FCS, and was used as the stimulator cell suspension.
Fifty μl of the responder cell suspension, 50μl of the stimulator cell suspension prepared by the above method, and 100 μl of the test substance were placed in 96-well microculture plates, and were cultured at 37° C. in an atmosphere of 5% carbon dioxide for 4 days.
The blastogenesis of lymphocytes was assayed by a method of ^3 H-thymidine uptake as an index. That is, after termination of the culture, 0.5 μCi/well of ^3 H-thymidine was added and cultured for 4 hours. Cells were harvested by a cell-harvester, and the radioactivity incorporated into the cells was determined by a liquid scintillation counter to obtain the index of blastogenesis of lymphocytes in the mouse allogenic MLR. The suppression of the mouse allogenic MLR was evaluated by calculating the percent suppression by the following formula. [formula]
The test substance was dissolved in methanol or suspended in a mixture of methanol and acetic acid, and then diluted with the RPMI1640 culture medium.

MOLT4 = assay: cytotoxicity to tumor cell line MOLT4; type: cell-based, human
Procedure: as §3, §4

[3] = cytotoxicity to tumor cell line MOLT4; type: cell-based, human; conditions: human, molt4 cells, read-out: Suppression
Procedure: as §3, §4

Question: What does the source list for CCCCCCC(O)CCCCCC/C=C/CC1OC(=O)C(N)(CO)C1O (stereo not drawn) [Example 8]?
Answer: Absorbancy (mouse L929 cells; 1 μg/ml): 0.817; Absorbancy (mouse L929 cells; 10 μg/ml): 0.738; Absorbancy (mouse L929 cells; 100 μg/ml): 0.023; cytotoxicity at 48 h ([1]; 1 μg/ml): 0%; cytotoxicity at 48 h ([1]; 10 μg/ml): 0%; cytotoxicity at 48 h ([1]; 100 μg/ml): 96%; cytotoxicity at 72 h (in vitro; ccrf-cem cells, 0.1 μg/ml): 0%; cytotoxicity at 72 h (in vitro; ccrf-cem cells, 1.0 μg/ml): 0%; cytotoxicity at 72 h (in vitro; ccrf-cem cells, 10.0 μg/ml): 3.9%; cytotoxicity at 72 h (in vitro; hl60 cells, 0.1 μg/ml): 16.9%; cytotoxicity at 72 h (in vitro; hl60 cells, 1.0 μg/ml): 14.8%; cytotoxicity at 72 h (in vitro; hl60 cells, 10.0 μg/ml): 19.9%; cytotoxicity at 72 h (in vitro; k562 cells, 0.1 μg/ml): 15.1%; cytotoxicity at 72 h (in vitro; k562 cells, 1.0 μg/ml): 16.6%; cytotoxicity at 72 h (in vitro; k562 cells, 10.0 μg/ml): 22.6%; cytotoxicity at 72 h (in vitro; kb cells, 0.1 μg/ml): 0%; cytotoxicity at 72 h (in vitro; kb cells, 1.0 μg/ml): 0%; cytotoxicity at 72 h (in vitro; kb cells, 10.0 μg/ml): 3.3%; cytotoxicity at 72 h (in vitro; pc-14 cells, 0.1 μg/ml): 4.6%; cytotoxicity at 72 h (in vitro; pc-14 cells, 1.0 μg/ml): 10.3%; cytotoxicity at 72 h (in vitro; pc-14 cells, 10.0 μg/ml): 31.2%; cytotoxicity at 72 h (in vitro; u937 cells, 0.1 μg/ml): 0%; cytotoxicity at 72 h (in vitro; u937 cells, 1.0 μg/ml): 0.5%; cytotoxicity at 72 h (in vitro; u937 cells, 10.0 μg/ml): 12%; Absorbancy (KB; 0.1 μg/ml): 0.741; Absorbancy (KB; 1.0 μg/ml): 0.749; Absorbancy (KB; 10.0 μg/ml): 0.706; Absorbancy (U937; 0.1 μg/ml): 0.590; Absorbancy (U937; 1.0 μg/ml): 0.580; Absorbancy (U937; 10.0 μg/ml): 0.513; Absorbancy (PC-14; 0.1 μg/ml): 0.452; Absorbancy (PC-14; 1.0 μg/ml): 0.425; Absorbancy (PC-14; 10.0 μg/ml): 0.326; Absorbancy (K562; 0.1 μg/ml): 0.327; Absorbancy (K562; 1.0 μg/ml): 0.321; Absorbancy (K562; 10.0 μg/ml): 0.298; Absorbancy (HL60; 0.1 μg/ml): 0.434; Absorbancy (HL60; 1.0 μg/ml): 0.445; Absorbancy (HL60; 10.0 μg/ml): 0.418; Absorbancy (CCRF-CEM; 0.1 μg/ml): 0.720; Absorbancy (CCRF-CEM; 1.0 μg/ml): 0.694; Absorbancy (CCRF-CEM; 10.0 μg/ml): 0.665; 3H-thymidine uptake ([2]; 0.001 μg/ml): 22815 cpm; 3H-thymidine uptake ([2]; 0.01 μg/ml): 3081 cpm; 3H-thymidine uptake ([2]; 0.1 μg/ml): 1586 cpm; inhibition at 0.001 µg/mL ([2]; Mus musculus, Lymphocyte, 0.001 μg/ml, read-out: Suppression): 21.1%; inhibition at 0.01 µg/mL ([2]; Mus musculus, Lymphocyte, 0.01 μg/ml, read-out: Suppression): 100%; inhibition at 0.1 µg/mL ([2]; Mus musculus, Lymphocyte, 0.1 μg/ml, read-out: Suppression): 100%; Absorbancy (MOLT4; 0.1 μg/ml): 0.142; Absorbancy (MOLT4; 1.0 μg/ml): 0.137; Absorbancy (MOLT4; 10.0 μg/ml): 0.133; cytotoxicity at 72 h ([3]; 0.1 μg/ml): 2.1%; cytotoxicity at 72 h ([3]; 1.0 μg/ml): 5.5%; cytotoxicity at 72 h ([3]; 10.0 μg/ml): 8.3%
